What all share (assay type): in vivo
The test system of experiment [1] is Abutilon. Put plainly: Post-emergence test. The following applies: greenhouse, 1000 g of ai./ha, after three weeks. How it is done:
(§1) Solvent: 5 parts by weight of acetone
(§2) Emulsifier: 1 part by weight of alkylaryl polyglycol ether
(§3) To produce a suitable preparation of active compound, 1 part by weight of active compound is mixed with the stated amount of solvent, the stated amount of emulsifier is added and the concentrate is diluted with water to the desired concentration.
(§4) Test plants which have a height of 5-15 cm are sprayed with the preparation of active compound such that the particular amounts of active compounds desired are applied per unit area. The concentration of the spray liquor is chosen so that the particular amounts of active compound desired are applied in 1000 l of water/ha.
(§5) After three weeks, the degree of damage to the plants is scored visually in % damage, in comparison to the untreated control.
(§6) 0%=no effect (like untreated control)

Experiment [2] relates to Alopecurus. Nature of the experiment: Post-emergence test. The following applies: greenhouse, 1000 g of ai./ha, after three weeks. How it is done: as §1, §2, §3, §4, §5, §6
The subject of experiment [3] is Amaranthus. Nature of the experiment: Post-emergence test. The following applies: for pest or weed control at 1000 g/ha: Amaranthus, 504 h, read-out: degree of damage to the plants (% damage), Amaranthus. How it is done:
as §1, §2, §3, §4, §5, §6

The test system of experiment [4] is Galium. Nature of the experiment: Post-emergence test. The following applies: greenhouse, 1000 g of ai./ha, after three weeks. On the procedure: as §1, §2, §3, §4, §5, §6
The test system of experiment [5] is Setaria. Nature of the experiment: Post-emergence test. The following applies: for pest or weed control at 1000 g/ha: Setaria, 504 h, read-out: degree of damage to the plants (% damage), Setaria. How it is done:
as §1, §2, §3, §4, §5, §6

The test system of experiment [6] is Xanthium. Nature of the experiment: Post-emergence test. The following applies: greenhouse, 1000 g of ai./ha, after three weeks. On the procedure:
as §1, §2, §3, §4, §5, §6

Experiment [7] relates to weeds. Put plainly: Post-emergence test. On the procedure: as §1, §2, §3, §4, §5, §6
The subject of experiment [8] is Abutilon. Nature of the experiment: Pre-emergence test. The following applies: for pest or weed control at 1000 g/ha: Abutilon, 504 h, read-out: degree of damage to the plants (% damage), Abutilon. On the procedure:
as §1, §2, §3
(§7) Seeds of the test plants are sown in normal soil. After about 24 hours, the soil is watered with the preparation of active compound. The amount of water per unit area is advantageously kept constant. The concentration of active compound in the preparation is immaterial, only the application rate of active compound per unit area matters.
(§8) After three weeks, the degree of damage to the plants is scored visually in % damage in comparison to the development of the untreated control.
as §6

For experiment [9], the system named is Alopecurus. Put plainly: Pre-emergence test. The following applies: greenhouse, 1000 g of ai./ha, after three weeks. On the procedure:
as §1, §2, §3, §7, §8, §6

Experiment [10] concerns Amaranthus. Put plainly: Pre-emergence test. The following applies: for pest or weed control at 1000 g/ha: Amaranthus, 504 h, read-out: degree of damage to the plants (% damage), Amaranthus. On the procedure: as §1, §2, §3, §7, §8, §6
Experiment [11] concerns Galium. Put plainly: Pre-emergence test. The following applies: greenhouse, 1000 g of ai./ha, after three weeks. How it is done: as §1, §2, §3, §7, §8, §6
The subject of experiment [12] is Setaria. Put plainly: Pre-emergence test. The following applies: greenhouse, 1000 g of ai./ha, after three weeks. How it is done: as §1, §2, §3, §7, §8, §6
Experiment [13] has as its system weeds. Put plainly: Pre-emergence test. On the procedure: as §1, §2, §3, §7, §8, §6
The mark [14] stands for this setting: greenhouse, 1000 g of ai./ha, after three weeks.

The results in this text go back to patent US6403794B2, “Substituted 2-amino-4-alkylamino-1,3,5-triazines as herbicides” (Bayer Aktiengesellschaft, priority 1996, dated 2002).

Where two headings read alike, the source gives them in different places.

Consider `CCC(COc1ccccc1)Nc1nc(N)nc(C(F)(F)F)n1` (stereo not drawn) [Example 4], for which, in experiment [1], the “degree of damage to the plants (% damage), Abutilon” value (shortened to “degree … (% damage), Abutilon”) was determined as 100%. The “degree of damage to the plants (% damage), Alopecurus” value (“degree … (% damage), Alopecurus” below) in experiment [2] is reported as 70%. For the same molecule, in experiment [3] (setting [14]), the “degree of damage to the plants (% damage), Amaranthus” value was 100%. The “degree of damage to the plants (% damage), Galium” value (from here on “degree … (% damage), Galium”) in experiment [4] is on record as 80%. For the same molecule, in [5] (setting [14]), the “degree of damage to the plants (% damage), Setaria” value (shortened to “degree … (% damage), Setaria”) is given as 100%. The “degree of damage to the plants (% damage), Xanthium” value (shortened to “degree … (% damage), Xanthium”) in experiment [6] is reported as 100%. The activity against weeds entry in experiment [7] is “strong activity”.

For the molecule `CCC(CCc1ccccn1)Nc1nc(N)nc(C(C)F)n1` (stereo not drawn) [Example 21], the pest or weed control at 1000 g/ha worked out at 90% in experiment [8] (setting [14]) and 95% in experiment [10] (setting [14]). In experiment [9], the “degree … (% damage), Alopecurus” value is 100%. Also, the “degree … (% damage), Galium” value in experiment [11] worked out at 80%. Also, in experiment [12], the “degree … (% damage), Setaria” value turned out to be 90%. Also, the activity against weeds result in experiment [13] was “strong activity”.

Take `CC(C)C(CCc1ccc(Cl)cc1)Nc1nc(N)nc(C(C)(C)F)n1` (stereo not drawn) [Example 29]: the pest or weed control at 1000 g/ha in [8] and in experiment [10] was 80% each time. Further, the “degree … (% damage), Alopecurus” value in [9] is listed as 70%. For the same molecule, the “degree … (% damage), Galium” value in [11] was 80%. Besides, in experiment [13], the activity against weeds entry is on record as “strong activity”.

Regarding `CCC(CCc1ccccc1)Nc1nc(N)nc(C(F)(F)F)n1` (stereo not drawn) [Example 41], the pest or weed control at 1000 g/ha in [8] (setting [14]), in [10] (setting [14]), in experiment [3] (setting [14]) and in experiment [5] (setting [14]) was 100% each time. For the same molecule, the results for the “degree … (% damage), Alopecurus” value in experiment [9] and in [2] were 90% and 80%, respectively. The “degree … (% damage), Galium” value in experiment [11] is 95%; in [4], 100%. Besides, the “degree … (% damage), Setaria” value in [12] is 100%. For the same molecule, the activity against weeds entry in [13] and in experiment [7] was “strong activity” throughout. In addition, the “degree … (% damage), Abutilon” value in experiment [1] was 100%. The “degree … (% damage), Xanthium” value in [6] was 100%.

Take `CCC(COc1ccc(Cl)cc1)Nc1nc(N)nc(C(F)(F)F)n1` (stereo not drawn) [Example 44]: the “degree … (% damage), Abutilon” value in [1] was found to be 100%. In addition, the “degree … (% damage), Alopecurus” value in experiment [2] is listed as 80%. Further, the pest or weed control at 1000 g/ha in experiment [3] and in [5] was 100% each time. Further, the “degree … (% damage), Galium” value in [4] was found to be 80%. Also, in experiment [6], the “degree … (% damage), Xanthium” value was determined as 100%. For the same molecule, the activity against weeds result in experiment [7] is given as “strong activity”.

With `CCC(CCc1ccccc1)Nc1nc(N)nc(C(F)(F)F)n1` (stereo not drawn) [Example 45], the “degree … (% damage), Abutilon” value in [8] (setting [14]) and in experiment [1] was 100% in each case. Also, the “degree … (% damage), Alopecurus” value in [9] and in experiment [2] was 80% throughout. The “degree of damage to the plants (% damage), Amaranthus” value in experiment [10] (setting [14]) and in experiment [3] (setting [14]) was 100% each time. Moreover, the “degree … (% damage), Galium” value in experiment [11] and in experiment [4] was 100% throughout. Further, the “degree … (% damage), Setaria” value in experiment [12] was found to be 95%; in [5] (setting [14]) it was 100%. Besides, the activity against weeds result in [13] and in experiment [7] was “strong activity” in each case. In addition, the “degree … (% damage), Xanthium” value in experiment [6] stood at 80%.
